Type in all cases: biochemical
The target of one test is T1, PDE9A isoform b (Homo sapiens, UniProt O76083).
T1 construct: they are full-length with N-terminal GST tag; GST (N); purchased BPS Biosciences 60090; host or cells: baculovirus infected Sf9 cells
In words: PDE enzyme activity assay (HTRF cGMP), PDE9A. As to conditions: recombinant enzyme; read-out: PDE9A inhibition (IC50).

For another test, the target named is HDAC1 (Homo sapiens, UniProt Q13547). In words: HDAC enzyme activity assay (fluorogenic substrate), HDAC1. The note with it: recombinant enzyme; read-out: HDAC1 inhibition (IC50).
HDAC1, sequence (Q13547 whole entry): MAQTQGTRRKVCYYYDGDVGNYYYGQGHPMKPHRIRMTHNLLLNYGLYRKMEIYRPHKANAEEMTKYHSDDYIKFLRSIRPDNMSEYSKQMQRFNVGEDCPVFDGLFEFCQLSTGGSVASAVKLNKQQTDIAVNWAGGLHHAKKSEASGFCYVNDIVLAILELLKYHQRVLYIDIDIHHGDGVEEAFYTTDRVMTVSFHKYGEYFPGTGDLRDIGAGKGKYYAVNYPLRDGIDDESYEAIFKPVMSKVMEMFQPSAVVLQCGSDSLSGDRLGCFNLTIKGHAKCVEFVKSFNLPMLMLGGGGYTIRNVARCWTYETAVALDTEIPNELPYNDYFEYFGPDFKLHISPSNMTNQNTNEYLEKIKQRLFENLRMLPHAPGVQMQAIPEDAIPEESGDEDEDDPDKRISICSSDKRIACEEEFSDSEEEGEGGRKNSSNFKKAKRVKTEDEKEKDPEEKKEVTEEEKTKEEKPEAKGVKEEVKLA
A further test addresses T2, PDE5A (Homo sapiens, UniProt O76074).
T2 construct: they are full-length with N-terminal GST tag; GST (N); purchased BPS Biosciences 60050; host or cells: baculovirus infected Sf9 cells
In words: PDE enzyme activity assay (HTRF cGMP), PDE5A. As to conditions: recombinant enzyme; read-out: PDE5A1 inhibition (IC50). (Time-resolved FRET reads energy transfer from a long-lived donor to a nearby acceptor.)

The next test concerns the target T3, HDAC2 (Homo sapiens, UniProt Q92769).
T3 construct: NM_001527; Cat. #50002) is full-length with C-terminal his tag; His (C); purchased BPS Biosciences 50002; host or cells: baculovirus infected Sf9 cells
Kind of test: HDAC enzyme activity assay (fluorogenic substrate), HDAC2. As to conditions: recombinant enzyme; read-out: HDAC2 inhibition (IC50).

The target of a further test is T4, HDAC6 (Homo sapiens, UniProt Q9UBN7).
T4 construct: BC069243; Cat. #50006) is full-length with N-terminal GST tag; GST (N); purchased BPS Biosciences 50006; host or cells: baculovirus infected Sf9 cells
T4 sequence (Q9UBN7 1-1215): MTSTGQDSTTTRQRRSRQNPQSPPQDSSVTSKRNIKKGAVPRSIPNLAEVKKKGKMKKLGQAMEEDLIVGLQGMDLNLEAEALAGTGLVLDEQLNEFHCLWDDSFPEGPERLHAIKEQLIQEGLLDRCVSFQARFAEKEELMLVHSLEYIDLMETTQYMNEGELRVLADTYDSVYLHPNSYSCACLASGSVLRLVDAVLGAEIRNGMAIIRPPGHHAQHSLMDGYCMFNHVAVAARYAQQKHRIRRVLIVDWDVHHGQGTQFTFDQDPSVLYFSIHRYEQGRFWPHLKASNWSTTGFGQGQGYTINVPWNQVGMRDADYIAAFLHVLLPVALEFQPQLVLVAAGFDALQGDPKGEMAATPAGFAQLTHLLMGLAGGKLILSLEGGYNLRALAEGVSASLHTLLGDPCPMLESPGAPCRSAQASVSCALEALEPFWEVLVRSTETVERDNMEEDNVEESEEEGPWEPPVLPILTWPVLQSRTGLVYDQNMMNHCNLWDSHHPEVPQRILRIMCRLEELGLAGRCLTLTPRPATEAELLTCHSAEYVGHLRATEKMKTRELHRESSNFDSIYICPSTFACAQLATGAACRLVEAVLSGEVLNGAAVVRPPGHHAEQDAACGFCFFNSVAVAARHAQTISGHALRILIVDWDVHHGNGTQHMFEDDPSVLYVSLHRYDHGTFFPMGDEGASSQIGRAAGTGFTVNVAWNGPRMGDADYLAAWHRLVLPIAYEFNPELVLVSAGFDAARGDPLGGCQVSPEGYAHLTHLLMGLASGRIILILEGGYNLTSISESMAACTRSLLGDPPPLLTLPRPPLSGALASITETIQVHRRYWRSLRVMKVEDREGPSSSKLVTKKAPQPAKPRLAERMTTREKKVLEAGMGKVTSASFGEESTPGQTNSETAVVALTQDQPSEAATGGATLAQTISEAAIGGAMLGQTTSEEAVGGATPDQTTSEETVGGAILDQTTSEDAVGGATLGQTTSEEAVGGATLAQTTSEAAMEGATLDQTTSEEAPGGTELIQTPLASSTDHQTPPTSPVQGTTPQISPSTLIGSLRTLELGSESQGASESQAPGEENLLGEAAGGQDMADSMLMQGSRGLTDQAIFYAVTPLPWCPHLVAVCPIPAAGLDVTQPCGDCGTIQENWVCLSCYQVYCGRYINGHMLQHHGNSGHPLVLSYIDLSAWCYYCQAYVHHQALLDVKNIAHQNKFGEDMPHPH
In words: HDAC enzyme activity assay (fluorogenic substrate), HDAC6. As to conditions: recombinant enzyme; read-out: HDAC6 inhibition (IC50).

T3 sequence (Q92769 whole entry): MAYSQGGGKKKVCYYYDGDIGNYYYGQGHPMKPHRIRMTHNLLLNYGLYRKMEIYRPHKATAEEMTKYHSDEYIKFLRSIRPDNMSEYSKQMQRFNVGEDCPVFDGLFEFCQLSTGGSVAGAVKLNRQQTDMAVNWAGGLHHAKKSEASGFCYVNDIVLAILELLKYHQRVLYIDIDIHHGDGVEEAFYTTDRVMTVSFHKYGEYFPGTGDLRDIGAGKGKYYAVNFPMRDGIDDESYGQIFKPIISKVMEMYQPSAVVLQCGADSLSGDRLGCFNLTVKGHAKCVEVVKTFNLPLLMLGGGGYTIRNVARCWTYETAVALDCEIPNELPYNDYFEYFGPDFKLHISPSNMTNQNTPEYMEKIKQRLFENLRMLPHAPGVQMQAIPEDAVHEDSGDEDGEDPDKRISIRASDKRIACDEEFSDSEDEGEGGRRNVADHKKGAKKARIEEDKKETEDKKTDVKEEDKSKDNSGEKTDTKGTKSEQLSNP
T1 sequence (O76083 1-533 isoform O76083-2): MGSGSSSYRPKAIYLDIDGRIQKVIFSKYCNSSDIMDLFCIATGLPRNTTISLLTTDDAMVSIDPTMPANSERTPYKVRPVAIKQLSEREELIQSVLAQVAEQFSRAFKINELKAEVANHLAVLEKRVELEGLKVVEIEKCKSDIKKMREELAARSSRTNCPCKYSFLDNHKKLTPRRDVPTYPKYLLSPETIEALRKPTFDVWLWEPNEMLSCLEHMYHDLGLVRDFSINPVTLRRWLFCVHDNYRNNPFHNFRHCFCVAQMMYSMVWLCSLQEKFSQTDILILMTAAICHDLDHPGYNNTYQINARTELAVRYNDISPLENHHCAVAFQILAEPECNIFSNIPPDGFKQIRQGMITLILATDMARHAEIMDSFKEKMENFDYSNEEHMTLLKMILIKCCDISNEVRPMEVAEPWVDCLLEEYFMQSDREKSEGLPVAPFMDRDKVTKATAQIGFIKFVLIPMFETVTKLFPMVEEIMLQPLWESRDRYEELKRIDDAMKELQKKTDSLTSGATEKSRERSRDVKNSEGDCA

In general, IC50 refers to the concentration needed to halve the response being measured. In the case of `C[C@@H]1CN(Cc2ncc(-c3ccc(C(=O)NO)cc3)cn2)C[C@H]1c1nc2c(cnn2C2CCOCC2)c(=O)[nH]1` (racemic) [Example 3-04], the IC50 at PDE9A isoform b was under 0.01 µM; on HDAC1, 0.01 to 1 µM.

`C[C@@H]1CN(Cc2cnc(N3CCC(C(=O)NO)CC3)nc2)C[C@H]1c1nc2c(cnn2C2CCOCC2)c(=O)[nH]1` (racemic) [Example 3-08]: the IC50 was in the range of 0.01 to 1 µM at PDE9A isoform b and 1 to 10 µM on HDAC1.

Take `CCCc1nn(C)c2c(=O)[nH]c(-c3cc(N4CCC(CCC(=O)NO)CC4)ccc3OCC)nc12` [Example 1-54]: the IC50 on PDE5A was in the range of 0.01 to 1 µM; at HDAC2, 1 to 10 µM; at HDAC6, 1 to 10 µM; on HDAC1 it was 0.01 to 1 µM.

`CCCc1nn(C)c2c(=O)[nH]c(-c3cc(OCc4ccc(C(=O)NO)cc4)ccc3OCC)nc12` [Example 1-55]: the IC50 on PDE5A was 0.01 to 1 µM; on HDAC2, over 10 µM; at HDAC6, 0.01 to 1 µM; on HDAC1, 1 to 10 µM.

Regarding `CCCc1nn(C)c2c(=O)[nH]c(-c3cc(N4CCC5(CCC(C(=O)NO)C5)CC4)ccc3OCC)nc12` (centres unmarked) [Example 1-56, 8-[4-ethoxy-3-(1-methyl-7-oxo-3-propyl-6H-pyrazolo[4,3-d]pyrimidin-5-yl)phenyl]-8-azaspiro[4.5]decane-3-carbohydroxamic acid], the IC50 at PDE5A is 0.01 to 1 µM; at HDAC2, over 10 µM; on HDAC6 it was 1 to 10 µM; at HDAC1, over 10 µM.

With `CCCc1nn(C)c2c(=O)[nH]c(-c3cc(Cc4ccc(/C=C/C(=O)NO)cc4)ccc3OCC)nc12` [Example 1-59], the IC50 on PDE5A is 0.01 to 1 µM; on HDAC2, over 10 µM; at HDAC6, 1 to 10 µM; on HDAC1, 1 to 10 µM.

With `CCCc1nn(C)c2c(=O)[nH]c(-c3cc(Cc4ccc(C(=O)NO)cc4OC)ccc3OCC)nc12` [Example 1-60], the IC50 at PDE5A was 0.01 to 1 µM; at HDAC2, over 10 µM; on HDAC6, over 10 µM; at HDAC1, over 10 µM.

Regarding `CCCc1nn(C)c2c(=O)[nH]c(-c3cc(CC4CC(C(=O)NO)C4)ccc3OCC)nc12` (centres unmarked) [Example 1-62, 3-[[4-ethoxy-3-(1-methyl-7-oxo-3-propyl-6H-pyrazolo[4,3-d]pyrimidin-5 yl)phenyl]methyl]cyclobutanecarbohydroxamic acid], the IC50 on PDE5A, on HDAC2, on HDAC6 and at HDAC1 was 0.01 to 1 µM each time.

Take `CCCc1nn(C)c2c(=O)[nH]c(-c3cc(CC4CC(C(=O)NO)C4)ccc3OCC)nc12` (centres unmarked) [Example 1-63, 3-[[4-ethoxy-3-(1-methyl-7-oxo-3-propyl-6H-pyrazolo[4,3-d]pyrimidin-5 yl)phenyl]methyl]cyclobutanecarbohydroxamic acid]: the IC50 fell in the range of 0.01 to 1 µM at PDE5A, 1 to 10 µM on HDAC2, 0.01 to 1 µM at HDAC6 and 0.01 to 1 µM on HDAC1.

For `CCCc1nn(C)c2c(=O)[nH]c(-c3cc(N4CCCC5(CCC(C(=O)NO)CC5)C4)ccc3OCC)nc12` (centres unmarked) [Example 1-65], the IC50 was 0.01 to 1 µM at PDE5A, over 10 µM on HDAC2, over 10 µM at HDAC6 and 1 to 10 µM at HDAC1.

For the compound `CCCc1nn(C)c2c(=O)[nH]c(-c3cc(Cc4ccc(C(=O)NO)c(F)c4)ccc3OCC)nc12` [Example 1-66], the IC50 at PDE5A is 0.01 to 1 µM; at HDAC2, over 10 µM; at HDAC6, 0.01 to 1 µM; on HDAC1, 1 to 10 µM.

With `CCCc1nn(C)c2c(=O)[nH]c(-c3cc(N4CCC5(CC5C(=O)NO)C4)ccc3OCC)nc12` (centres unmarked) [Example 1-67], the IC50 at PDE5A was 0.01 to 1 µM; on HDAC2, over 10 µM; on HDAC6, over 10 µM; at HDAC1, over 10 µM.

Regarding `CCCc1nn(C)c2c(=O)[nH]c(-c3cc(Cc4ccc(C(=O)NO)cc4F)ccc3OCC)nc12` [Example 1-68], the IC50 is 0.01 to 1 µM at PDE5A, over 10 µM at HDAC2, 0.01 to 1 µM on HDAC6 and 1 to 10 µM at HDAC1.

For `CCCc1nn(C)c2c(=O)[nH]c(-c3cc(N4CCC5(CCN(c6ncc(C(=O)NO)cn6)CC5)C4)ccc3OCC)nc12` [Example 1-69, 2-[2-[4-ethoxy-3-(1-methyl-7-oxo-3-propyl-6H-pyrazolo[4,3-d]pyrimidin-5-yl)phenyl]-2,8-diazaspiro[4.5]decan-8-yl]pyrimidine-5-carbohydroxamic acid], the IC50 was in the range of 0.01 to 1 µM on PDE5A, 1 to 10 µM at HDAC2, 1 to 10 µM at HDAC6 and 0.01 to 1 µM at HDAC1.

With `CCCc1nn(C)c2c(=O)[nH]c(-c3cc(N4CCC5(CCCN(c6ncc(C(=O)NO)cn6)C5)C4)ccc3OCC)nc12` (centres unmarked) [Example 1-70], the IC50 fell in the range of 0.01 to 1 µM on PDE5A, 1 to 10 µM at HDAC2, 1 to 10 µM at HDAC6 and 0.01 to 1 µM at HDAC1.

`CCCc1nn(C)c2c(=O)[nH]c(-c3cc(C4CC(C(=O)NO)C4)ccc3OCC)nc12` (centres unmarked) [Example 1-84, 3-[4-ethoxy-3-(1-methyl-7-oxo-3-propyl-6H-pyrazolo[4,3-d]pyrimidin-5-yl)phenyl]cyclobutanecarbohydroxamic acid]: the IC50 was 0.01 to 1 µM on PDE5A, 1 to 10 µM on HDAC2, 0.01 to 1 µM at HDAC6 and 0.01 to 1 µM on HDAC1.

For `CCCc1nn(C)c2c(=O)[nH]c(-c3cc(C4CC(C(=O)NO)C4)ccc3OCC)nc12` (centres unmarked) [Example 1-85, 3-[4-ethoxy-3-(1-methyl-7-oxo-3-propyl-6H-pyrazolo[4,3-d]pyrimidin-5-yl)phenyl]cyclobutanecarbohydroxamic acid], the IC50 is 0.01 to 1 µM on PDE5A, 1 to 10 µM on HDAC2, 0.01 to 1 µM on HDAC6 and 1 to 10 µM on HDAC1.

With `CCCc1nn(C)c2c(=O)[nH]c(-c3cc(CC4CC4C(=O)NO)ccc3OCC)nc12` (centres unmarked) [Example 1-86, 2-[[4-ethoxy-3-(1-methyl-7-oxo-3-propyl-6H-pyrazolo[4,3-d]pyrimidin-5-yl)phenyl]methyl]cyclopropanecarbohydroxamic acid], the IC50 on PDE5A was 0.01 to 1 µM; at HDAC2, over 10 µM; at HDAC6 it was 1 to 10 µM; on HDAC1, 1 to 10 µM.

With `CCCc1nc(C)c2c(=O)[nH]c(-c3cc(Cc4ccc(/C=C/C(=O)NO)cc4)ccc3OCC)nn12` [Example 2-08], the IC50 is under 0.01 µM on PDE5A, 1 to 10 µM at HDAC2, 0.01 to 1 µM on HDAC6 and 1 to 10 µM on HDAC1.

`CC(c1nc2c(cnn2C2CCOCC2)c(=O)[nH]1)N1CC(Oc2ccc(N3CCC(C(=O)NO)CC3)cc2)C1` (centres unmarked) [Example 3-05]: the IC50 on PDE9A isoform b is 0.01 to 1 µM; on HDAC1 it was over 10 µM.

`CC(c1nc2c(cnn2C2CCOCC2)c(=O)[nH]1)N1CC(Oc2ccc(/C=C/C(=O)NO)cc2)C1` (centres unmarked) [Example 3-06]: the IC50 at PDE9A isoform b was under 0.01 µM; on HDAC1, 0.01 to 1 µM.

With `CC(c1nc2c(cnn2C2CCOCC2)c(=O)[nH]1)N1CC(OC2CCN(c3ncc(C(=O)NO)cn3)CC2)C1` (centres unmarked) [Example 3-07], the IC50 at PDE9A isoform b and at HDAC1 was 0.01 to 1 µM each time.

On to `COc1ccc(C(=O)Nc2c(Cl)cncc2Cl)cc1OC1CCCC1` [Piclamilast, reference compound], for which the IC50 on PDE5A is 1 to 10 µM; on PDE9A isoform b, over 10 µM.

The values are drawn from patent US9573956B2, “Compounds as dual inhibitors of phosphodiesterases and histone deacetylases” (FUNDACIÓN PARA LA INVESTIGACIÓN MÉDICA APLICADA, priority 2013, dated 2017).
